Here are results for one compound from patent US9084779B2, “Conjugates of nitroimidazoles and their use as chemotherapeutic agents” (The Johns Hopkins University, priority 2011, dated 2015).

What is called IC50 is the midpoint of a concentration-inhibition curve.

Holding throughout (type): cell-based
Experiment [1] deals with HT29 human colorectal carcinoma cells. Description: Cell viability by plating efficiency (colony formation after replating). Conditions: 40 μM, 48 h, diluted 10,000 fold and replated, colonies stained eight days later. The method, then:
FIG. 6 depicts the plating efficiency of HT29 human colorectal carcinoma cells after treatment with DMSO, 40μ M3n and 40μ M3N-PEG-2NI. HT29 cells were treated for 48 h with 40 μM M3N, 40 μM M3N-PEG-2NI or the DMSO vehicle. At the end of the treatment period, the cells were diluted 10,000 fold and replated. Eight days later colonies were stained with methylene blue.
For the further assessment of cell viability by plating efficiency, cells (2×10^6 cells/100 mm dish) from the human colorectal carcinoma cell line HT29 were treated for 48 hours with 40 μM M3N, 40 μM M3N-PEG-2NI or the DMSO vehicle. At the end of the treatment period, the cells from each dish were released by trypsinization, diluted 10,000 fold and replated into new 100 mm dishes. Eight days later colonies were stained with 0.25% methylene blue in 50% ethanol

For experiment [2], the system named is LNCaP human prostate cancer cells. Kind of experiment: Western blot analysis of 2-nitroimidazole induced protein adducts in cell culture. The following applies: 80 μM, 6 hours normoxic then 6 hours hypoxic or normoxic. As for the experimental part: Western blot analysis of 2-nitroimidazole induced protein adducts in LNCaP cell cultures. Exponentially growing LNCaP human prostate cancer cells were treated with DMSO, 80 μM M3N-PEG-2NI or Hypoxyprobe-1 in standard media for 6 hours under normoxic conditions and then under hypoxic or normoxic conditions for additional 6 hours. Afterward the media was aspirated, the cells washed and ice cold RIPA lysis buffer was added and the cells lysed on ice for 15 minutes. The samples were centrifuged and the lysate collected. Cellular proteins in the extracts were analyzed for the presence of protein adducts using standard western blotting technique. The primary antibody was PAb2627 polyclonal antibody (1:200) directed against Hydroxyprobe-1 protein adducts. The secondary antibody was Anti-Rabbit HRP conjugate (1:2000). Detection was by chemiluminescence
(In general: In western blotting, separated proteins are transferred to a membrane and probed.)

The test system of experiment [3] is Hep3B human hepatocellular carcinoma cells. Description: Hypoxia targeting assay, 5-h exposure then 5 days growth, MTS. The following applies: for IC50: Homo sapiens. As for the experimental part:
Hypoxia targeting assay. Hep3B cells, plated in 96-well plates at a density of 3.0×10^3 cells/well, were incubated overnight and then treated with the test compounds for 5.0 hours at under hypoxic (1% O2) or normoxic (21% O2) conditions. Exposure of cells to hypoxia was carried out in a PROOX C-Chamber with O2 and CO2 levels modulated by a PROOX Model C21 Controller (BioSpherix). At the end of the treatment period, the wells were washed with phosphate buffered saline (PBS) and fresh compound-free media was added. The cells were cultured for an additional 5 days under normoxic conditions and then assayed for cell proliferation using the MTS assay.
Hypoxia targeting. Nitroimidazoles are converted to reactive compounds in hypoxic cells. Therefore it is of importance to compare the antiproliferative activities of the nitroimidazole conjugated compounds against Hep3B cells under normoxic and hypoxic conditions. In these experiments, Hep3B cells in culture were treated with each of the conjugated compounds 7c-d, 10c-d, or the parent compounds 3 or 8 for a 5.0-hour period under normoxic (21% O2) or hypoxic (1.0% O2) conditions. After treatment, the cells were returned to normal conditions and assayed for proliferation after 5 days of additional growth. […] The ratio between the IC50 values for each drug under normoxic versus hypoxic culture conditions was computed and used as a measure of the relative increase in potency.

The subject of experiment [4] is 786-0 human renal adenocarcinoma cells. Kind of experiment: MTT cell viability assay, 3 days. Conditions: Homo sapiens, 786-0, 72 h, normoxic conditions, 1% DMSO. As for the experimental part:
(§1) Additional cell culture, drug treatment and cell viability assays. HT29 human colorectal carcinoma cells, 786-0 human renal adenocarcinoma cells and Hep3B human hepatocellular carcinoma cells were obtained from ATCC and maintained in culture according to their recommendations. […] After the treatment period viability of the cells was determined with the MTT cell viability assay and dose response curves were generated using the calculated values of the percentage viable cells relative to the vehicle control.
(In general: Tetrazolium dyes change colour on reduction, which living cells bring about.)

For experiment [5], the system named is HT29 human colorectal carcinoma cells. Description: MTT cell viability assay, 3 days. The following applies: Homo sapiens, HT-29, 72 h, normoxic conditions, 1% DMSO. As for the experimental part:
as §1

Experiment [6] concerns Hep3B human hepatocellular carcinoma cells. Kind of experiment: MTT cell viability assay, 3 days. The following applies: Homo sapiens, Hep3B, 72 h, normoxic conditions, 1% DMSO. The method, then:
as §1

For experiment [7] the test system is unchanged. Description: MTS tetrazolium cell proliferation assay, 72-h exposure. The following applies: normoxic (21% O2), read-out: IC50 Normoxic (N). The source says:
Anti-proliferative assay. The human hepatocellular carcinoma cell line Hep3B was purchased from American Type culture Collection (ATCC, Manassas, Va.). Dulbecco's Modified Eagle Medium (DMEM) and penicillin/streptomycin (P/S) were obtained from GIBCO Invitrogen. Fetal Bovine serum (FBS) was obtained from Thermo Scientific Hyclone. Dimethyl sulfoxide (DMSO-Hybri-Max) was purchased from Sigma-Aldrich Co. and the CellTiter 96 AQueous One Solution Cell Proliferation Assay (MTS) was acquired from Promega Corp. Hep3B cells were maintained in DMEM supplemented with 10% FBS and 1× P/S solution. Cultures were incubated at 37° C. in a 5% CO2 atmosphere with 99% humidity. Stock solutions of test compounds were prepared in DMSO for use in the cell culture viability assays.
MTS tetrazolium cell proliferation assay. The viability of Hep3B cells exposed to the synthesized compounds was determined by the MTS assay. Briefly, Hep3B cells were plated in 96-well plates at a density of 3.0×10^3 cells/well and incubated for 24-h before treatment. At the initiation of treatment, the growth media was replaced with 200 μL of media containing increasing concentrations of the test compounds in triplicate wells. The final DMSO concentration in the media was 1.0% including the media added to the control wells minus the test compound. After a 72-hour incubation, 40 μL of MTS solution was added to each well and the plates were incubated for an additional 3.0 hours. The plates were then read at 490 nm on a Biotek Instruments PowerWave 200 microplate reader. For each experiment the percent growth inhibition relative to the control (no drug addition) was calculated and a dose inhibition curve was generated. The concentration of drug required to inhibit cell growth by 50% (IC50) compared to the control cells was then determined by non-linear regression using PSI-Plot software (Poly Software International).
Antiproliferative activity. The anti-cancer activities of the parent compounds 3 and 8 and the conjugated compounds 7a-d and 10a-d were tested against Hep3B human hepatocellular carcinoma cells in culture.

With `COc1ccc(C[C@H](C)[C@H](C)Cc2ccc(OC)c(OCCOCCOCCOCCn3ccnc3[N+](=O)[O-])c2)cc1OC` (racemic) [Compound 7d, (±)-(2R,3S)-4-(3,4-Dimethoxyphenyl)-1-[4-methoxy-3-[12-(2-nitro-1H-imidazol-1-yl)-1,4,7,10-tetraoxadodecanyl]phenyl]-2,3-dimethylbutane], the “Ability of HT29 cells to replicate after treatment (plating efficiency)” value in experiment [1] is reported as “unable to replicate”. Also, the “Protein adducts by western blot (PAb2627 antibody)” value in experiment [2] is reported as “showed evidence of protein adducts”. In addition, the IC50 in experiment [3] (hypoxic (1.0% O2), then 5 days normoxic growth, read-out: IC50 Hypoxic (H)) was 53.2 ± 8 µM; in experiment [3] (normoxic (21% O2), then 5 days growth, read-out: IC50 Normoxic (N)), 60.8 ± 9.4 µM; in experiment [4], 10 to 14 µM; in experiment [5], 4 to 6 µM; in experiment [6] it was 4 µM; in experiment [7], 12.6 ± 4.9 µM. The “Ratio IC50 (N)/IC50 (H)” value in experiment [3] (normoxic versus hypoxic) came to 1.14.
